Assay results taken from paper PMC1971568 (British Journal of Cancer, 1990).
Read-outs that look alike come from different tables or passages of the source.

Key:
[1] = in vivo, ip
[2] = Nu/Nu, mouse, in vivo, iv
LS174T colonic cell line = system: LS174T colonic cell line; set-up: method as in Springer et al., 1990; details: ref Springer et al., 1990; cited from earlier work
[3] = system: carboxypeptidase G2 (CPG2); set-up: method as in Bagshawe et al., 1988; details: ref Bagshawe et al., 1988; cited from earlier work
CC3 tumours = system: CC3 tumours; set-up: method as in Bagshawe et al., 1988; details: single course of two phase prodrug therapy (antibody-enzyme conjugate then prodrug); ref Bagshawe et al., 1988; cited from earlier work
[4] = system: human JAR choriocarcinoma cell line; details: cited from earlier work
[5] = Localisation of antibody-enzyme conjugate: enzyme activity in tissues, CC3 model; details: tissue homogenate incubated at 37C with prodrug 34 µg ml-1 (87 µM)

In the case of O=C(O)CC[C@H](NC(=O)c1ccc(N(CCCl)CCCl)cc1)C(=O)O [prodrug, 4-(bis (2-chloroethyl)amino) benzoyl-L-glutamic acid], the “AUC, area under plasma concentration versus time curve from zero to infinity” value ([1]; Nu/Nu, mouse) is reported as 7.09, the “Cl, total body clearance” value ([1]; Nu/Nu, mouse, 41 umol/kg) is reported as 1.18 and the “Vd, apparent volume of distribution” value ([1]; Nu/Nu, mouse, 41 umol/kg) is reported as 0.07 L. The AUC in liver ([1]; 41 umol/kg) was 62, the AUC in tumour ([1]; 41 umol/kg) was 3.3 and the “AUC, area under plasma concentration versus time curve from zero to infinity” value [2] was 15.4. For the same compound, the “Cytotoxicity against LS174T cells in culture” value (LS174T colonic cell line) was “very little cytotox- icity”, the “Affinity of the enzyme for prodrug” value [3] was “very high affinity” and the “Growth of CC3 tumours” value (CC3 tumours) was “marked inhibition of growth”. The “Cytotoxicity against JAR cells in culture” value [4] was “very little cytotox- icity” and the “Activation of prodrug by tissues of mice which did not receive conjugate” value [5] was “No activation”.
